Measurements from article PMC9421654, “Discovery of Substituted Di(pyridin-2-yl)-1,2,4-thiadiazol-5-amines as Novel Macrofilaricidal Compounds for the Treatment of Human Filarial Infections” (Journal of Medicinal Chemistry, 2022).
In brackets after ≈: the same amount, converted by molar mass. Several values for one entry are separate records, joined by “and”; a condition that tells them apart may be missing. Identical values can stand only once. Like-named read-outs stand apart in the source and are kept apart here. Marks after values point to notes of the source that are not given here.

How the values were obtained:
[1] = Liver microsome metabolic stability assay, mouse; type: in vitro ADME; conditions: 3 μM, 30 min; for Rat Microsomes: Tables 2 and 3, footnote: tested in the mouse liver microsome assay
Procedure: (§1) Liver Microsome Metabolic Stability Assay: Incubations were performed at 37 °C in a Dubnoff Shaking water bath using 2 mL 96-well incubation plates. Liver microsome protein concentration was 0.3 mg/mL the final concentration of NADPH was 1 mM. Substrate concentrations are 3µM, incubation time is 30 minutes, and all tests are done in triplicate. The incubation was conducted in 200 mM Phosphate buffer containing 2 mM magnesium chloride, pH=7.4 and the total incubation volume was 0.5 mL. Samples were analyzed via LC-MS/MS and reported as percentage remaining after 30minute incubation, which can then be converted to half-life and intrinsic clearance. […]

[2] = Kinetic solubility measurement; type: physicochemical
Summary of the method: (§2)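 Human and rat liver microsomes (0.3 mg/mL) with 1 mM NADPH and 3µM substrate, 30 minutes at 37 °C in pH 7.4 phosphate/MgCl2, triplicate; LC-MS/MS percentage remaining. LogD: octanol/aqueous buffer (pH 7.4, 2.2, 6.8, 5), 24 h shaking at room temperature. Kinetic solubility: 200 µM, 2% DMSO, 24 h, filtered.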

[3] = LogD measurement (octanol-water); type: physicochemical
Summary of the method: as §2

[4] = Liver microsome metabolic stability assay, human; type: in vitro ADME; conditions: 3 μM, 30 min
Procedure: as §1

[5] = system: O. gutturosa adult male worms; experiment: O. gutturosa adult worm ex vivo assay, MTT/formazan viability; type: cell-based, Onchocerca gutturosa; conditions: Onchocerca gutturosa, supplement; SD in brackets in the PDF table; read-out: O. gutturosa EC50 (uM) MTT viability inhibition
Summary of the method: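 Adult male worms from naturally infected Gambian cattle were kept individually in MEM with 10% newborn calf serum at 37 °C, 5% CO2; four worms per concentration. Motility was scored 0-10 every 24 h to 120 h as a percentage of maximum, with ≥50% reduction versus untreated counted active. Afterwards, MTT (0.5 mg/mL, 30 min) formazan was read at 490 nm.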

[6] = system: O. gutturosa adult male worms; experiment: O. gutturosa adult worm ex vivo assay, motility; type: cell-based, Onchocerca gutturosa; conditions: Onchocerca gutturosa
Summary of the method: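 Adult male O. gutturosa from naturally infected cattle were cultured in supplemented MEM at 37 °C, 5% CO2, with four worms per concentration in serial 1-in-4 dilutions. Motility (0–10 scale) was scored every 24 h to 120 h. EC50 (geomean, n=2) for motility reduction came from 4PL fits, and viability was checked by MTT at 120 h.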

P-gp (MDR1) = biological target: T1, P-gp (MDR1) (Homo sapiens, UniProt P08183); experiment: MDCK/MDR1 permeability and efflux; type: in vitro ADME; conditions: dog
T1 construct: expressed in transfected cells; host or cells: MDCK (Madin Darby canine kidney) cells
Text: Our approach was to target compounds with efflux ratio (ER) >2.5 in the MDCK cell line transfected with MDR1 (multidrug resistance-1 transfected Madin Darby canine kidney cell line). […] Our goal was to impart structural elements designed to impart Pgp recognition.

[7] = biological target: T2, hERG potassium channels (KCNH2, expressed in HEK293 cells) (Homo sapiens, UniProt Q12809); experiment: hERG inhibition; type: cell-based; conditions: supplement
T2 construct: expressed in transfected cells

THLE-2 cells = experiment: THLE-2 cytotoxicity assay (ATP); conditions: Homo sapiens, THLE-2, read-out: THLE IC50
Procedure: In vitro cytotoxicity of select compounds was tested in a “normal” proliferating transformed human liver epithelial (THLE-2) cell line.[35] Compounds were incubated in THLE-2 cells for 24 and 72 h, and adenosine triphosphate (ATP) levels were used as an indicator of cell viability.
THLE-2 Cytotoxicity Assay: THLE-2 cells (ATCC, catalog #CRL-2706) were plated in LHC-8 Media (Invitrogen, catalog #12679015) supplemented with fetal bovine serum (GE, catalog #SH30088.03), 70 ng/mL phosphoethanolamine (Sigma, catalog #P0503), 5 ng/mL EGF (Sigma, catalog #E9644), 1X penicillin/streptomycin (Gibco, catalog #15140148), and 1X glutamine (Invitrogen, catalog #25030024) in 384-well clear-bottom, black walled plates at a density of 3750 cells/well (15μL/well). After plating, cells were incubated overnight at 37°C in an incubator with 5% CO2 and 90% humidity. Compounds were first serially diluted in dimethyl sulfoxide then diluted in LHC-8 media growth media to 2X concentration. Cells were dosed with 15μL of each dose for final concentrations between 0.01 – 300 μM. Cells were incubated with compounds for 24 or 72 hours. Cytotoxicity was determined with Cell Titer Glo Luminescent ATP Assay (Promega, catalog #G7573) according to the manufacturer’s instructions. Tamoxifen (Sigma, catalog #BC9353476) was used as a positive control. levels at each dose were normalized to that of cells dosed with dimethyl sulfoxide vehicle alone and IC50 values were calculated from non-linear regression fits of dose-response curves plotted

[8] = Liver S9 metabolic stability assay, human; type: in vitro ADME; conditions: 3 μM, 60 min
Summary of the method: (§3)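 Rat and human liver S9 (0.75 and 1.2 mg/ml) with 1 mM NADPH, 0.5 mM UDPGA, 2.5 mM GSH, 0.05 mg/ml PAPS, 3µM substrate, 60 min at 37 °C in Tris/MgCl2 pH 7.4. Mouse microsomes 0.3 mg/mL, 1 mM NADPH, 3µM, 30 min, phosphate pH 7.4. LC-MS/MS, % remaining, triplicate.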

O. volvulus L5 larvae [9] = experiment: O. volvulus L5 ex vivo assay, MTT viability; type: cell-based, Onchocerca volvulus; conditions: Day 21, 1 uM
Procedure: This culturing medium was then added in transwell 24-well plates containing human umbilical vein endothelial cell (HUVEC) monolayers, containing the L4 larvae. A week prior to conducting an assay, the cultured O. volvulus larvae (L5) were transferred into a Petri dish containing fresh medium. […] After the transfer of O. volvulus L5 to the plates, the test compounds were dissolved in DMSO, added to each well, and incubated at 37 °C in a 5% CO2. The media containing freshly prepared compounds were partially replaced every 2–3 days for 14 days. After 14 days, the media were completely replaced. The untreated control contains the media described above with a final concentration of 0.05% DMSO. […] The motility was measured visually by two operators. […] Following washout and incubation during 1 h in PBS under 5% CO2, worms were observed under an inverted microscope. Worms were considered dead if no staining or less than 50% within the worm was observed. Otherwise, if worms stained blue or more than 50% stained, then they are considered alive. All test treatments were performed in duplicates. Significance was determined using a t test.

O. volvulus L5 larvae [10] = experiment: O. volvulus L5 ex vivo assay, motility; type: cell-based; conditions: Onchocerca volvulus, 504 h, read-out: O. volvulus L5 % inhibition of motility
Procedure: O. volvulus larvae (L4) were prepared using cryopreserved O. volvulus L3 cultured in a medium containing 1:1 NCTC-109 and IMDM (Iscove’s modified Dulbecco’s medium) supplemented with Glutamax (1×) and 2× Antibiotic-Antimycotic (Life Technologies). This culturing medium was then added in transwell 24-well plates containing human umbilical vein endothelial cell (HUVEC) monolayers, containing the L4 larvae. A week prior to conducting an assay, the cultured O. volvulus larvae (L5) were transferred into a Petri dish containing fresh medium. Aliquots of 8–10 worms were retrieved from the Petri dish and placed inside new transwells over newly seeded HUVEC monolayers in the medium described above. After the transfer of O. volvulus L5 to the plates, the test compounds were dissolved in DMSO, added to each well, and incubated at 37 °C in a 5% CO2. The media containing freshly prepared compounds were partially replaced every 2–3 days for 14 days. After 14 days, the media were completely replaced. The untreated control contains the media described above with a final concentration of 0.05% DMSO. The motility was measured every 2–3 days with the following scale: 100% motility, constant coiling movement; 75% motility, slower coiling; 50% motility, slow and intermittent movement; 25% motility, very slow movement or twitching; and 0% motility, no movement. The motility was measured visually by two operators. On day 28, the viability of O. volvulus L5 was measured by MTT. Following washout and incubation during 1 h in PBS under 5% CO2, worms were observed under an inverted microscope. Worms were considered dead if no staining or less than 50% within the worm was observed. Otherwise, if worms stained blue or more than 50% stained, then they are considered alive. All test treatments were performed in duplicates. Significance was determined using a t test.

[11] = Liver S9 metabolic stability assay, rat; type: in vitro ADME; conditions: 3 μM, 60 min
Summary of the method: as §3

[12] = supplement, read-out: measured logD
[13] = read-out: O. gutturosa EC50 μM (SD), ex vivo adult worm motility reduction, SD in brackets
[14] = read-out: O. gutturosa EC50 (uM) motility inhibition, supplement, SD in brackets in the PDF table
[15] = read-out: O. gutturosa EC50, adult worm motility, bound stated

T2 sequence (Q12809 whole entry): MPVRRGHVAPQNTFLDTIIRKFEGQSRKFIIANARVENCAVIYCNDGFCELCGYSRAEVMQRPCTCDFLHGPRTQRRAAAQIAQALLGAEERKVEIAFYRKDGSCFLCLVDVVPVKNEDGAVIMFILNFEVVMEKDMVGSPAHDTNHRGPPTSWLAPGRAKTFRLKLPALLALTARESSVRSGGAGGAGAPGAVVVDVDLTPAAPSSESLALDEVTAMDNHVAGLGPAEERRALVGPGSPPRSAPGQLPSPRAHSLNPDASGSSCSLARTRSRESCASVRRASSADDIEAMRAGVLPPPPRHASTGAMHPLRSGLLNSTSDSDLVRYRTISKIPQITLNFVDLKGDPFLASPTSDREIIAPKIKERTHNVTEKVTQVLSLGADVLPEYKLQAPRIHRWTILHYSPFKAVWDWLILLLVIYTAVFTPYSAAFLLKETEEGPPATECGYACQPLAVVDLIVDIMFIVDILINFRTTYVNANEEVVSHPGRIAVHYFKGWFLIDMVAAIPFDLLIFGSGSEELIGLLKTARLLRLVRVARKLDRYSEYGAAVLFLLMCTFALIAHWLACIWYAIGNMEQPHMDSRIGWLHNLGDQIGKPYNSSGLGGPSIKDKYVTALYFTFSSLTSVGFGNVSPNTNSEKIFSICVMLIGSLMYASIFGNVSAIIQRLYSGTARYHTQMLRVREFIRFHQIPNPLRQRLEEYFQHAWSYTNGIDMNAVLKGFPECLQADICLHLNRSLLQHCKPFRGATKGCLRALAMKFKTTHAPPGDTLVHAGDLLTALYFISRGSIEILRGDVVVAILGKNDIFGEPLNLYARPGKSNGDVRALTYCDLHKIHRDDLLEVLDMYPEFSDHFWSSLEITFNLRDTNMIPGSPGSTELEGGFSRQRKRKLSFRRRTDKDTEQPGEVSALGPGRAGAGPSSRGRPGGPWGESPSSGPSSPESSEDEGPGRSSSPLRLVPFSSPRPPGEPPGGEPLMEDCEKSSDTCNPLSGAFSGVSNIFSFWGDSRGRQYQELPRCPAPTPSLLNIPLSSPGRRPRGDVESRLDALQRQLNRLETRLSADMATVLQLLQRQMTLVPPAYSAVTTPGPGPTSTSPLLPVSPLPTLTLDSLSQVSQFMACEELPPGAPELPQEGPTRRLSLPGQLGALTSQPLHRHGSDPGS
T1 sequence (P08183 whole entry): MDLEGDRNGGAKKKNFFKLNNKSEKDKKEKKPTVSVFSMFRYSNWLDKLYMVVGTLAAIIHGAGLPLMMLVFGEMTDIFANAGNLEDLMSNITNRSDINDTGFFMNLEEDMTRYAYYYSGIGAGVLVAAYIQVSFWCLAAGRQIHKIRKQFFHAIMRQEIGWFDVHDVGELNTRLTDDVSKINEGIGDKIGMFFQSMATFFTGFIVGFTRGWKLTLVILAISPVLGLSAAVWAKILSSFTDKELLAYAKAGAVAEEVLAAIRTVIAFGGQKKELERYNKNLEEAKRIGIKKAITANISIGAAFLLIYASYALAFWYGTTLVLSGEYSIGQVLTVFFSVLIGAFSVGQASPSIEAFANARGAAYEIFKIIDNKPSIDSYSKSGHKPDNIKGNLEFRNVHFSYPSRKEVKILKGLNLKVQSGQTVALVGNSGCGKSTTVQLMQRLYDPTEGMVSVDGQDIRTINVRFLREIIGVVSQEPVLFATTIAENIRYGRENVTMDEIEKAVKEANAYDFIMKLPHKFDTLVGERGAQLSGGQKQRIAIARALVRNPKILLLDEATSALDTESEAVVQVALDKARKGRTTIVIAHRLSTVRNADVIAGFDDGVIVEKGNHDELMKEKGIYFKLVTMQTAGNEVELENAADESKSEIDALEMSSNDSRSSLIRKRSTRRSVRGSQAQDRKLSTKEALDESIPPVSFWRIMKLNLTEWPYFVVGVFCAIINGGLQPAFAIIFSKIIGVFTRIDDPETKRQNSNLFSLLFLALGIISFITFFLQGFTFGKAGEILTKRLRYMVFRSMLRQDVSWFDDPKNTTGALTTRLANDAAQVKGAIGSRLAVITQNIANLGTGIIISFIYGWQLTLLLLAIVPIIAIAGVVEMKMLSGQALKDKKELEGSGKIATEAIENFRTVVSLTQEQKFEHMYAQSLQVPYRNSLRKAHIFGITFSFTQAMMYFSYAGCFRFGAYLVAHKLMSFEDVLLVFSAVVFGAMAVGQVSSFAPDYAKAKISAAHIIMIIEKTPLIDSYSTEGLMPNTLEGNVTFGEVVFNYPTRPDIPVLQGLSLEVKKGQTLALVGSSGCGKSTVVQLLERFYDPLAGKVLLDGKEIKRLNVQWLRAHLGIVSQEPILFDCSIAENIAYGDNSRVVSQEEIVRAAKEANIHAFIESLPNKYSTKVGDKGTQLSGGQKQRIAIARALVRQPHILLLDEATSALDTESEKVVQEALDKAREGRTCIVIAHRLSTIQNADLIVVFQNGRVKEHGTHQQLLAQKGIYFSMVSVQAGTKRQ

Row | SMILES | Rat Microsomes [1] [% remaining] | solubility kinetic at 24 h ([2]; 10 mM DMSO stock solutions) | logD at 24 h ([3]; pH 7.4, read-out: logD) | logD at 24 h [3, 12] | Human Microsomes [4] [% remaining] | EC50 [5] [µM] | EC50 [6, 13] [µM] | EC50 [6, 14] [µM] | EC50 [6, 15] [µM] | Papp A→B (P-gp (MDR1)) [×10⁻⁶ cm/s] | solubility kinetic at 24 h ([2]; supplement) [µM] | IC50 [7] [nM] | IC50 (THLE-2 cells) [nM] | Rat Microsomes, (m) ([1]; Table 1, tested in the mouse not rat) | Human S9 metabolic stability [8] [% remaining] | O. volvulus L5 % inhibition of viability (O. volvulus L5 larvae [9]) [%] | inhibition at 1 µM (O. volvulus L5 larvae [10]) [%] | Rat S9 metabolic stability [11] [% remaining]
1 | CC(C)Oc1cnc(-c2nsc(Nc3ncccc3C(C)C)n2)cc1C(F)(F)F [Compound 24, 3-(5-Isopropoxy-4-(trifluoromethyl)pyridin-2-yl)-N-(3-isopropylpyridin-2-yl)-1,2,4-thiadiazol-5-amine] | 96 | 1.05 µM (≈ 0.445 µg/mL) | 2.9 | 2.9 | 97 | 0.75 | 0.05 | 0.051 | < 0.1 |  |  |  |  |  |  |  |  | 
2 | CC(=O)N(C)c1cccnc1Nc1nc(-c2cc(C(F)(F)F)c(OC(C)C)cn2)ns1 [Compound 48] |  | 10.8 µM (≈ 4.86 µg/mL) | 3.5 | 3.5 |  | 1.05 | 3.71 |  |  | 6.9 | 10.8 (≈ 4.89 µg/mL) | 26000 | 8300 |  |  |  |  | 
3 | Cc1cccnc1Nc1n[nH]c(-c2ccc(OC3CCOCC3)cn2)n1 [Compound 8, 3-Methyl-N-{5-[5-(oxan-4-yloxy)pyridin-2-yl]-4H-1,2,4-triazol-3-yl}pyridin-2-amine] |  | 202 µM (≈ 71.1 µg/mL) |  | 2 | 92 | 0.004 | 0.01 | 0.009 |  |  |  |  |  | 70 (m)^e % remaining |  |  |  | 
4 | Cc1cccnc1Nc1nc(-c2cc(C(=O)N(C)C)c(OC(C)C)cn2)ns1 [Compound 17] | 90 | 154 µM (≈ 61.6 µg/mL) | 2.3 | 2.3 | 91 | 0.5 | 0.63 | 0.626 |  |  |  |  |  |  |  |  |  | 
5 | CC(C)Oc1ccc(-c2nsc(Nc3ncccc3C(=O)N(C)C)n2)nc1 [Compound 61, 2-((3-(5-Isopropoxypyridin-2-yl)-1,2,4-thiadiazol-5-yl)amino)-N,N-dimethylnicotinamide] |  | 101 µM and 100.70 µM | 2.1 | 2.1 |  | 2.1 | 0.36 | 0.357 |  | 4.9 |  | > 30000 | 32500 |  |  |  |  | 
6 | CC(C)Oc1cnc(-c2nsc(Nc3ncccc3N(C)C(=O)C3CC3)n2)cc1C(F)(F)F [Compound 49, N-(2-((3-(5-Isopropoxy-4-(trifluoromethyl)pyridin-2-yl)-1,2,4-thiadiazol-5-yl)amino)pyridine-3-yl)-N-methylcyclopropanecarboxamide] |  | 2.67 µM (≈ 1.28 µg/mL) | 3.63 | 3.63 |  | 3.7 | 1.11 |  |  | 8.8 |  | > 30000 | 18300 |  |  |  |  | 
7 | CC(C)c1cccnc1Nc1nc(-c2ccc(OC3CC3)cn2)ns1 [Compound 23, 3-(5-Cyclopropoxypyridin-2-yl)-N-(3-isopropylpyridin-2-yl)-1,2,4-thiadiazol-5-amine] |  |  | 2.5 | 2.5 |  | 0.012 | 0.04 | 0.038 | < 0.1 |  |  |  |  |  | 39 | 100 | 100 | 78
8 | CC(C)Oc1cnc(-c2nsc(Nc3ncccc3N3CCCC3=O)n2)cc1C(F)(F)F [Compound 52, 1-(2-((3-(5-Isopropoxy-4-(trifluoromethyl)pyridin-2-yl)-1,2,4-thiadiazol-5-yl)amino)pyridin-3-yl)pyrrolidin-2-one] |  | 9.95 µM (≈ 4.62 µg/mL) | 2.7 | 2.7 |  | 1.95 | 1.73 |  |  | 12.9 |  |  |  |  |  |  |  | 
9 | CC(=O)N(C)c1cc(C(F)(F)F)cnc1Nc1nc(-c2ccc(OC(C)C)cn2)ns1 [Compound 54, N-(2-((3-(5-Isopropoxypyridin-2-yl)-1,2,4-thiadiazol-5-yl)amino)-5-(trifluoromethyl)pyridin-3-yl)-N-methylacetamide] |  | 13.1 µM (≈ 5.95 µg/mL) | 3.13 | 3.13 |  | 0.15 | 0.14 | 0.139 |  | 9.9 |  | > 30000 | 6100 |  |  |  |  | 
